Data: patent US20250129430A1, “HIGH ATP-AFFINITY PROTEIN AS THERAPEUTIC TARGET FOR INTRACTABLE CANCER MOLECULAR SUBTYPES AND INHIBITOR THEREOF” (VeraVerse Co., Ltd., priority 2021, published 2025)
Counter-ions that a name gives are not always drawn.

What was measured:
Assay type in all cases: cell-based, human
[1] = system: non-SEM-type gastric cancer cell line; assay: Cell viability drug screen, AUC summary over non-SEM-type lines; details: in the non-SEM-type gastric cancer cell line
FU97 = assay: Cell viability drug screen, 12-point dose-response AUC; parameters: Average Area Under the Viability Curve (AUC), AUC norm value: scale not given here; details: FU97 cells; 72 hours
How it was run: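 Trapezoidal AUC of a 12-point, DMSO-normalized dose-response curve. Luminescent viability was measured after 72 h of exposure at 37° C to half-log serial dilutions (0.5% DMSO control), dosed 24 h after plating FU97 cells at 5×10^3 per well.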

YCC3 = assay: as above; details: YCC3 cells; 72 hours
How it was run: (§1)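 Viability: luminescence (Glo kit, 15 min RT), normalized to 0.5% DMSO vehicle. Dosing: half-log, 12 concentrations, 72 h. Cells: 5×10^3/well, treated 24 h after plating. Value: trapezoidal AUC, mean of repeats.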

SNU484 = assay: as above; details: SNU484 cells (SEM subtype); 72 hours
How it was run: as §1

OCUM1 = assay: as above; details: OCUM1 cells; 72 hours
How it was run: as §1

YCC2 = assay: as above; details: YCC2 cells; 72 hours
How it was run: as §1

SNU668 = assay: as above; details: SNU668 cells (SEM subtype); 72 hours
How it was run: as §1

YCC11 = assay: as above; details: YCC11 cells (SEM subtype); 72 hours
How it was run: as §1

NCC20 = assay: as above; details: NCC20 cells; 72 hours
How it was run: as §1

SK4 = assay: as above; details: SK4 cells (SEM subtype); 72 hours
How it was run: as §1

NCC24 = assay: as above; details: NCC24 cells; 72 hours
How it was run: as §1

MKN28 = assay: as above; details: MKN28 cells; 72 hours
How it was run: as §1

Hs746T = assay: as above; details: Hs746T cells (SEM subtype); 72 hours
How it was run: as §1

MKN74 = assay: as above; details: MKN74 cells; 72 hours
How it was run: (§2)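 Dose-response AUC reflects 72 h drug exposure of gastric cancer cells in a 12-point, half-log format, with viability read by luminescence and normalized to DMSO (0.5%).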

SNU601 = assay: as above; details: SNU601 cells; 72 hours
How it was run: as §1

NCI_N87 = assay: as above; details: NCI_N87 cells; 72 hours
How it was run: as §1

SNU1967 = assay: as above; details: SNU1967 cells; 72 hours
How it was run: as §1

MKN1 = assay: as above; details: MKN1 cells; 72 hours
How it was run: as §1

SNU216 = assay: as above; details: SNU216 cells (non-SEM subtype); 72 hours
How it was run: as §2

SNU638 = assay: as above; details: SNU638 cells; 72 hours
How it was run: as §1

NCC19 = assay: as above; details: NCC19 cells; 72 hours
How it was run: as §1

SNU1750 = assay: as above; details: SNU1750 cells (SEM subtype); 72 hours
How it was run: as §1

SNU719 = assay: as above; details: SNU719 cells; 72 hours
How it was run: as §2

KATO3 = assay: as above; details: KATO3 cells; 72 hours
How it was run: as §1

SNU620 = assay: as above; details: SNU620 cells; 72 hours
How it was run: as §1

MKN45 = assay: as above; details: MKN45 cells (non-SEM subtype); 72 hours
How it was run: as §2

NCC59 = assay: as above; details: NCC59 cells; 72 hours
How it was run: as §1

SNU1 = assay: as above; details: SNU1 cells; 72 hours
How it was run: as §1

AGS = assay: as above; details: AGS cells (non-SEM subtype); 72 hours
How it was run: as §2

SNU16 = assay: as above; details: SNU16 cells; 72 hours
How it was run: as §1

Row | Compound | AUC value [1] | Average Area Under the Viability Curve (AUC), AUC norm value (FU97) | Average Area Under the Viability Curve (AUC), AUC norm value (YCC3) | Average Area Under the Viability Curve (AUC), AUC norm value (SNU484) | Average Area Under the Viability Curve (AUC), AUC norm value (OCUM1) | Average Area Under the Viability Curve (AUC), AUC norm value (YCC2) | Average Area Under the Viability Curve (AUC), AUC norm value (SNU668) | Average Area Under the Viability Curve (AUC), AUC norm value (YCC11) | Average Area Under the Viability Curve (AUC), AUC norm value (NCC20) | Average Area Under the Viability Curve (AUC), AUC norm value (SK4) | Average Area Under the Viability Curve (AUC), AUC norm value (NCC24) | Average Area Under the Viability Curve (AUC), AUC norm value (MKN28) | Average Area Under the Viability Curve (AUC), AUC norm value (Hs746T) | Average Area Under the Viability Curve (AUC), AUC norm value (MKN74) | Average Area Under the Viability Curve (AUC), AUC norm value (SNU601) | Average Area Under the Viability Curve (AUC), AUC norm value (NCI_N87) | Average Area Under the Viability Curve (AUC), AUC norm value (SNU1967) | Average Area Under the Viability Curve (AUC), AUC norm value (MKN1) | Average Area Under the Viability Curve (AUC), AUC norm value (SNU216) | Average Area Under the Viability Curve (AUC), AUC norm value (SNU638) | other results
1 | CCC[C@H](NC(=O)/C(C#N)=C/c1cccc(Br)n1)c1ccccc1 [WP1130] | high | −0.7929 | 0.8784 | −0.8971 | −0.652 | 0.94 | 0.1607 | −0.2144 | −0.8247 | −0.08364 | 0.3475 | −0.04006 | −0.3738 | −0.1908 | 3.24 | 2.159 | −0.7195 | −0.4264 | 0.1101 | −0.3485 | Average Area Under the Viability Curve (AUC), AUC norm value (NCC19): 1.376; Average Area Under the Viability Curve (AUC), AUC norm value (SNU1750): −0.8602; Average Area Under the Viability Curve (AUC), AUC norm value (SNU719): 1.245; Average Area Under the Viability Curve (AUC), AUC norm value (KATO3): 1.454; Average Area Under the Viability Curve (AUC), AUC norm value (SNU620): 1.336; Average Area Under the Viability Curve (AUC), AUC norm value (MKN45): 1.024; Average Area Under the Viability Curve (AUC), AUC norm value (NCC59): 0.7588; Average Area Under the Viability Curve (AUC), AUC norm value (SNU1): 1.527; Average Area Under the Viability Curve (AUC), AUC norm value (AGS): −0.6997; Average Area Under the Viability Curve (AUC), AUC norm value (SNU16): 0
2 | CCCCc1oc2ccc(NS(C)(=O)=O)cc2c1C(=O)c1ccc(OCCCN(CCCC)CCCC)cc1 [Dronedarone HCl (Multaq), Dronedarone HCl] | high | 0.3807 | 0.8816 | −0.2497 | 0.02571 | −0.08246 | 0.4123 | −0.521 | −0.2985 | −0.3488 | 1.044 | −0.1927 | −0.03562 | −1.381 | 3.848 | −0.08952 | 0.1919 | 0 | 0.08211 | −0.5649 | Average Area Under the Viability Curve (AUC), AUC norm value (NCC19): −0.3711; Average Area Under the Viability Curve (AUC), AUC norm value (SNU1750): 0.06657; Average Area Under the Viability Curve (AUC), AUC norm value (SNU719): 1.291; Average Area Under the Viability Curve (AUC), AUC norm value (KATO3): 0.1721; Average Area Under the Viability Curve (AUC), AUC norm value (SNU620): −0.3353; Average Area Under the Viability Curve (AUC), AUC norm value (MKN45): 0.6772; Average Area Under the Viability Curve (AUC), AUC norm value (NCC59): 0.6769; Average Area Under the Viability Curve (AUC), AUC norm value (SNU1): 1.295; Average Area Under the Viability Curve (AUC), AUC norm value (AGS): −0.6415; Average Area Under the Viability Curve (AUC), AUC norm value (SNU16): −0.2149
3 | COC1=CC(c2cc3ccccc3[nH]2)=N/C1=C\c1[nH]c(C)cc1C [Obatoclax mesylate (GX15-070), Obatoclax mesylate] | high | −1.5029 | 2.281 | −1.4 | 0.1302 | −0.5916 | −0.2715 | −0.8407 | −0.9868 | −1.531 | 0.2511 | −0.3769 | 0 | −1.051 | 2.791 | 0.636 | −0.4093 | 0.7857 | −0.1398 | −0.5094 | Average Area Under the Viability Curve (AUC), AUC norm value (NCC19): 1.604; Average Area Under the Viability Curve (AUC), AUC norm value (SNU1750): −0.872; Average Area Under the Viability Curve (AUC), AUC norm value (SNU719): 2.585; Average Area Under the Viability Curve (AUC), AUC norm value (KATO3): 1.383; Average Area Under the Viability Curve (AUC), AUC norm value (SNU620): 0.8129; Average Area Under the Viability Curve (AUC), AUC norm value (MKN45): 0.9313; Average Area Under the Viability Curve (AUC), AUC norm value (NCC59): 2.5912; Average Area Under the Viability Curve (AUC), AUC norm value (SNU1): 0.5238; Average Area Under the Viability Curve (AUC), AUC norm value (AGS): −0.9005; Average Area Under the Viability Curve (AUC), AUC norm value (SNU16): 1.841
